System: MHV1
Design: species or system A/J mice
Conditions: mouse, in vivo

CC(=O)N[C@H]1[C@H]([C@H](O)[C@H](O)CO)OC(C(=O)O)=C[C@@H]1N=C(N)N [zanamivir] was tested, and the “% protection (survival) against lethal MHV1 challenge” value was 0%.

Source: patent US20240100146A1 (priority 2022, published 2024)
